In ChEMBL document CHEMBL1147353, “The Isolation of Majusculamide C from the Sponge Ptilocaulis trachys Collected in Enewetak and Determination of the Absolute Configuration of the 2-Methyl-3-aminopentanoic Acid Residue” (1993):
Converted amounts (≈) assume the structure as drawn. Numbered stars: 1 amine (or outer) side, 2 acyl side, 3 side chain; on linkers, the order of the positions; unused ones are H or OH. Square brackets hold non-standard residues; d marks the D form. Peptide text beside a SMILES is read from it. X1 = CC[C@H](C)[C@H](OC(=O)[C@@H](C)[C@@H](CC)N[*:1])C(=O)[*:2]; X2 = C[C@H](N[*:1])C(=O)C(C)(C)C(=O)[*:2]; NMeY = CN[C@@H](Cc1ccc(O)cc1)C(=O)O; NMeF = CN[C@@H](Cc1ccccc1)C(=O)O; NMeL = CN[C@@H](CC(C)C)C(=O)O; NMeV = CN[C@H](C(=O)O)C(C)C; NMeA = CN[C@@H](C)C(=O)O

System: P388
Assay: Cytotoxicity against mouse P388 cells
Type: functional
Settings: read-out: ED50 (the source's name)

Compound: CC[C@H](C)[C@@H]1OC(=O)[C@@H](C)[C@@H](CC)NC(=O)[C@H](C)NC(=O)C(C)(C)C(=O)[C@H](C)NC(=O)[C@H](Cc2ccc(OC)cc2)N(C)C(=O)[C@H](C(C)C)N(C)C(=O)CNC(=O)[C@H](CC(C)C)N(C)C(=O)CNC1=O [DOLASTATIN 11] (cyclo(A[X1]G[NMeL]G[NMeV][NMeY](Me)[X2]))
- EC50: 0.0027 µg/mL (≈ 0.00274 µM)

Compound: CC[C@H](C)[C@@H]1OC(=O)[C@@H](C)[C@@H](CC)NC(=O)[C@H](C)N(C)C(=O)C(C)(C)C(=O)[C@H](C)NC(=O)[C@H](Cc2ccccc2)N(C)C(=O)[C@H](C(C)C)N(C)C(=O)CNC(=O)[C@H](CC(C)C)N(C)C(=O)CNC1=O [DOLASTATIN 12] (cyclo(G[NMeL]G[NMeV][NMeF][X2][NMeA][X1]))
- EC50: 0.075 µg/mL (≈ 0.0774 µM)
